Laboratory results: patent US6352980B1, “Estrenes for inducting hypothalamic effects” (Pherin Pharmaceuticals, Inc., priority 1991, dated 2002)
“Also recorded” adds a separate entry of the source.

Key:
Type in all cases: in vivo, human
VNO [1] = assay: Electro-vomeronasogram (EVG) (Example 57); conditions: for EVG response in female subjects: 30 female subjects (ages 20-45), FIG. 6B; for organ response (EVG data): additional tests on 13 estranes; for EVG response in the male VNO: male subjects, FIG. 6A and FIG. 7; for EVG response to olfactants delivered to the VNO: male and female subjects, 400 fmoles, FIG. 7B
Method: The following electrophysiological studies were performed in 60 clinically normal human volunteers of both sexes (30 male and 30 female) whose ages ranged from 20 to 45 years. No anesthetics were used, and female subjects were excluded if pregnant.
(§1) The stimulation and recording system consists of a “multifunctional miniprobe” described elsewhere (Monti-Bloch, L. and Grosser, B. l. (1991) “Effect of putative pheromones on the electrical activity of the human vomeronasal organ and olfactory epithelium,” J. Steroid Biochem. Molec. Biol. 39:573-582.). The recording electrode is a 0.3 mm silver ball attached to a small (0.1 mm) silver wire insulated with Teflon© the surface of the electrode is first treated to produce a silver chloride interface, and is then covered with gelatin It is positioned within a small caliber Teflon© catheter (dia=5 mm) such that the tip of the electrode protrudes approximately 2 mm. The Teflon© catheter is 10 cm in length and constitutes the terminal extension for a multichannel delivery system which delivers a continuous air stream carrying discreet pulses of chemosensory stimuli. The air stream first passes into a small chamber and is bubbled through a solution containing either a vomeropherin or an olfactant in a diluent or the diluent alone. A solenoid is used to rapidly redirect the air stream from the chamber to a route which bypasses the chamber. This creates a discreet pulse of stimulant in the air stream. A second, outer Teflon® tube with a diameter of 2 mm surrounds the catheter-electrode assemblage, and its central end is connected to an aspirator that provides continuous suction of 3 ml/s. This concentric arrangement of the outer suction tube allows the emitted chemosensory stimuli to be localized to an area we call a “minifield” (approx. dia=1 mm), and it avoids diffusion of substances either to the area outside the intended stimulation site or into the respiratory system. The entire stimulating and recording assemblage may be positioned either on the neurosensory epithelium within the VNO, or on the surface of the olfactory or respiratory epithelium.
Electro-vomeronasogram (EVG): Recordings are carried out in a quiet room with the subject supine; the multi-functional miniprobe is initially stabilized within the nasal cavity using a nasal retractor placed in the vestibule. Reference and ground electrodes consist of silver discs (8 mm), both of which are positioned on the glabella.
The entrance to the VNO, or vomeronasal pit, is identified by first dilating the nasal aperture and vestibule. A 6× magnifying binocular loupe with halogen illumination is then used to introduce the tip of the Teflon® catheter and recording electrode assemblage into the VNO opening where it is stabilized at an approximate depth of 1 mm within the vomeronasal passage. Optimal placement of the recording electrode is signaled after testing for an adequate depolarization in response to a test substance.
Electrical signals from the recording electrode are fed to a DC amplifier after which they are digitized, computer monitored, and stored. The peak-to-peak amplitude of the signals is measured, and the area under the depolarization wave is integrated, while continuously monitoring the signal both on the computer screen and on a digital oscilloscope. Artifacts produced by respiratory movements are deleted by training the subjects to practice mouth breathing with velopharyngeal closure.
(§2) Chemosensory Stimulants: Olfactory test substances are cineole, and 1-carvone; vomeropherins are A, B, C, E and F. (Vomeropherins were supplied by Pherin Corporation, Menlo Park, Calif.), Samples of vomeropherins In. concentration of 25-800 fmoles are delivered in the continuous air stream for durations from 300 milliseconds to 1 second. Usually, intervals of 3 to 5 minutes separated each series of short test pulses. […]

[2] = test system: olfactory epithelium (OE); assay: Electro-olfactgram (EOG) (Example 57); conditions: 20 subjects (10 males, 10 females); 200 fmoles vomeropherins, 400 fmoles olfactants; one second pulses; FIG. 7A
From the text: as §1, §2
(§3) Statistical Analysis: EVGs or EOGS, peak-to-peak changes and frequency changes of other parameters were measured and statistically analyzed. The significance of the results was determined by either using paired t-tests or analysis of variance (ANOVA).
Effects of Vomeropherins on the EOG: The summated receptor potential from the olfactory epithelium (OE) was recorded in 20 subjects: 10 males and 10 females. […]

VNO [3] = assay: Cortical activity (EEG) on VNO stimulation with vomeropherins; conditions: for EEG-beta activity / EEG-alpha activity: additional tests on 13 estranes of Chart 1
Method: (§4) Cortical evoked activity was induced by VNO stimulation with vomeropherins, and olfactory stimulation with odorants delivered in 300 ms air pulses. It was recorded using standard electroencephalographic (EEG) electrodes placed at positions Cz-A1 and Tz-A1 of the international […] system; the ground electrode was placed on the mastoid process. Electrodermal activity (EDA) was recorded using standard 8 mm silver electrodes in contact with palmar skin of the medial and ring fingers, respeCtively, through a conductive gel interface. Skin temperature (ST) was recorded by a small (1.0 mm) thermistor probe placed in the right ear lobe. Peripheral arterial pulse (PAP) was monitored with a plethysmograph attached to the tip of the index finger. Respiratory frequency (RF) was measured with an adjustable strain gauge placed around the lower thorax. All electrical signals were DC amplified, digitized (MP-100, Biopac Systems) and continuously monitored utilizing a computer.
as §3
[…] […] Synchronization of the EEG was sustained for 1.5 to 2.7 minutes after application of a single pulse of active substance.

VNO [4] = assay: Autonomic responses to Estrene stimulation of the VNO (Example 54); conditions: 40 male subjects, 1 second pulse
Method: Various autonomic parameters were monitored while 1,3,5(10),16-Estratetraen-3-yl-acetate was administered to 40 male subjects using the procedure described in Example 20. Propylene glycol was also administered as a control. The ligand was administered as a 1 second pulse. The change in autonomic function was first noted within 2 seconds and lasted for up to 45 seconds.

VNO [5] = assay: Electrodermal activity (EDA) on vomeropherin stimulation of the VNO; conditions: n=30, p<0.01; for electrodermal activity (EDA): female subjects
Method: as §4, §3
Reflex Effects of Vomeropherins: Studies were conducted to determine the central nervous system (CNS) reflex responses to vomeropherin stimulation of the VNO. The sexually dimorphic local responses induced by vomeropherins (FIGS. 6A and B) were mirrored in the autonomic response of male & female subjects. […] In female subjects.

VNO [6] = assay: Skin temperature (ST) on vomeropherin stimulation of the VNO
Method: as §4, §3
In female subjects vomeropherins produced changes in EDA and ST with a greater standard deviation than in males.

[7] = females, single pulse 200 fmoles, FIG. 6F
[8] = 30 female subjects, p<0.01 compared to A and C, FIG. 6H

C[C@@]12C=CC[C@H]1[C@@H]1CCC3=C[C@H](O)CC[C@]3(C)[C@H]1CC2 [E, Androsta-4,16-dien-3α-ol]
EVG response in female subjects (VNO [1]; 100 fmoles): does not stimulate the VNO in female subjects
EOG local response of the OE [2]: stronger olfactory effect than does F; also recorded: significant (p<0.01) local response

C[C@@]12C=CC[C@H]1[C@@H]1CCC3=CC(=O)CC[C@]3(O)[C@H]1CC2 [E7/N1, 10-HYDROXYESTRA-4,16-DIEN-3-ONE]
EEG-beta activity (VNO [3]; men, FIGS. 22-34 A): high EEG-betain men
EEG-alpha activity (VNO [3]; women, FIGS. 22-34 B): best EEG-alpha activity in women; also recorded: high EEG-alpha in women
organ response (EVG data) (VNO [1]; men, FIG. 21A): excellent organ response
organ response (EVG data) (VNO [1]; women, FIG. 20A): excellent organ response

CC(=O)Oc1ccc2c(c1)CC[C@@H]1[C@@H]2CC[C@]2(C)C=CC[C@@H]12 [A, 1,3,5(10),16-Estratetraen-3-yl acetate]
alpha cortical activity (VNO [3]; males, 200 fmoles, air pulses 300 ms to 1 sec, FIG. 6E): significantly increased alpha cortical activity; also recorded: strongest effect
duration of change in autonomic function (VNO [4]): up to 45 seconds
time at which change in autonomic function was first noted (VNO [4]): ≤ 2 s
integrated receptor potential in the VNO (VNO [4]; compared to propylene glycol control, FIG. 4A): significant change
galvanic skin response (VNO [4]; compared to propylene glycol control, FIG. 4B): significant change
skin temperature (VNO [4]; compared to propylene glycol control, FIG. 4C): significant change
skin resistance (electrodermal activity, EDA) (VNO [5]; male subjects, FIG. 6C): decreased skin resistance
EVG response in female subjects (VNO [1]; 100 fmoles): small effect that was significantly different from F
EVG average response (mean) (VNO [1]; male subjects (ages 20 to 38), 100 fmoles, 1 second pulses, FIG. 6A): 11.4 mV
skin temperature (ST) (VNO [6]; 30 male subjects, p<0.01, FIG. 6G): significant increase in skin temperature

C[C@@]12C=CC[C@H]1[C@@H]1CCC3=C[C@@H](O)CC[C@]3(C)[C@H]1CC2 [F, Androsta-4,16-dien-3β-ol, reference compound]
alpha cortical activity (VNO [3]; [7]): increased alpha cortical
electrodermal activity (EDA) (VNO [5]): greater decrease in EDA than A or C
EVG response in female subjects (VNO [1]; 100 fmoles): produced the most significant differences within the group
EVG response in the male VNO (VNO [1]; 100 fmoles): significantly reduced responses
skin temperature (ST) (VNO [6]; [8]): significant increase in skin temperature

COC1=CCC2=C(CC[C@@H]3[C@@H]2CC[C@]2(C)C=CC[C@@H]32)C1 [E8/N1, 3-METHOXYESTRA-2,5(10),16-TRIENE]
EEG-beta activity (VNO [3]; men, FIGS. 22-34 A): best EEG-beta activity in men

CC12CCC(CC1)C(C)(C)O2 [cineole]
EVG response to olfactants delivered to the VNO (VNO [1]): only a minor local response in the VNO; also recorded: do not induce a significant EVG response
EOG local response of the OE [2]: strong response in both men and women; also recorded: significant (p<0.01) local response

C=C(C)C1CC=C(C)C(=O)C1 (centres unmarked) [1-carvone]
EVG response to olfactants delivered to the VNO (VNO [1]): only a minor local response in the VNO; also recorded: do not induce a significant EVG response
EOG local response of the OE [2]: strong response in both men and women; also recorded: significant (p<0.01) local response

C[C@@]12C=CC[C@H]1[C@@H]1C[C@@H](O)c3cc(O)ccc3[C@H]1CC2 [E12/N1, ESTRA-1,3,5(10),16-TETRAEN-3,6β-DIOL]
EEG-alpha activity (VNO [3]; men, FIGS. 22-34 A): best EEG-alpha activity in men

C[C@@]12C=CC[C@H]1[C@@H]1CCC3=CC(=O)CC[C@]3(C)[C@H]1CC2 [B, Androsta-4,16-dien-3-one, reference compound]
alpha cortical activity (VNO [3]; [7]): increased alpha cortical
electrodermal activity (EDA) (VNO [5]): greater decrease in EDA than A or C
EVG response in the male VNO (VNO [1]; 100 fmoles): significantly reduced responses
EOG local response of the OE [2]: only vomeropherin having significant effect in the OE; also recorded: significant (p<0.01) local response
skin temperature (ST) (VNO [6]; [8]): significant increase in skin temperature
